Laboratory results reported in patent US4703048A, “Novel 1-benzhydryl-4-cinnamylpiperazine derivatives, and pharmaceutical compositions comprising said compounds as active ingredient for treating a cerebrovascular disease” (Kanebo Ltd., priority 1985, dated 1987).
Counter-ions that a name gives are not always drawn.

Assays:
vertebral blood flow [1] = test: Activity of increasing cerebral blood flow (vertebral blood flow), intravenous administration in anesthetized dogs; format: in vivo; conditions: Canis lupus familiaris; 0.03 to 0.3 mg/kg intravenous, anesthetized mongrel dogs; calculated from the regression line; read-out: VBF-ED50 (dose which increased the cerebral blood flow by 50%)
in vivo = conditions: mouse, oral, ddY-strain male mice, fasted 24 hours, deaths during seven days, Weil method, read-out: Acute toxicity LD50
Protocol: ddY-strain male mice (body weight 18 to 22 g; five per group) were caused to fast 24 hours. Then, each of the test compounds was administered orally, and acute toxicity values (LD50) were determined.
Each of the compounds was dissolved or suspended in a 2% tartaric acid solution containing 20% of dimethylacetamide, and orally administered to the animals. From the number of animals which died during seven days, the LD50 values were calculated by using the Weil method.

vertebral blood flow [2] = test: Activity of increasing cerebral blood flow (vertebral blood flow), intravenous administration in anesthetized dogs; format: in vivo; conditions: 0.3 mg/kg, injected into femoral vein, anesthetized mongrel dogs
Protocol: The activity of increasing cerebral blood flow was measured by using the amount of vertebral blood flow as an index. Mongrel dogs of either sex (body weight 11 to 14 kg; four per group) were anesthetized with sodium pentobarbital (30 mg/kg, by intravenous injection), and the right vertebral artery was isolated from the surrounding tissues. A flow probe was attached to it and led to an electromagnetic flow meter (MFV-2100 made by Nihon Kohden Co., Ltd.). The amount of blood flow was periodically measured [see Meth and Find Exptl Clin Pharmacol, 3 (6), 397 (1981)]. Each of the test compounds was dissolved in a 2% tartaric acid solution containing 20% dimethylacetamide, and injected into the right femoral vein.
Furthermore, each of the test compounds was administered in a dose of 0.3 mg/kg, and increases (%) in vertebral blood flow were determined 1, 5, 10 and 20 minutes after the administration.

vertebral blood flow [3] = test: Activity to increase cerebral blood flow (vertebral blood flow), intraduodenal administration in dogs; format: in vivo; conditions: 1 mg/kg intraduodenal, mongrel dogs
Protocol: The activity of compound A of the invention to increase cerebral blood flow was examined by intraduodenal administration.
Compound A was dissolved in a 2% tartaric acid solution containing 20% dimethylacetamide, and administered intraduodenally to mongrel dogs of either sex (body weight 11-18 kg, five per group) in a dose of 1 mg/kg.
At 10, 30, 60, 120, 180 and 240 minutes after the administration, the increase (%) of vertebral blood flow was measured in the same way as in Test Example 1.

[4] = 10 minutes after administration
[5] = 20 minutes after administration

| SMILES | ED50 (vertebral blood flow [1]) [mg/kg] | LD50 at 168 h (in vivo) [mg/kg] | Increase (%) in vertebral blood flow (mean ± standard error) (vertebral blood flow [2]; 1 minute after administration) [%] | Increase (%) in vertebral blood flow (mean ± standard error) (vertebral blood flow [2]; 5 minutes after administration) [%] | Increase (%) in vertebral blood flow (mean ± standard error) (vertebral blood flow [2]; [4]) [%] | Increase (%) in vertebral blood flow (mean ± standard error) (vertebral blood flow [2]; [5]) [%] | Increase (%) of vertebral blood flow (mean ± standard error) (vertebral blood flow [3]; [4]) [%] | Increase (%) of vertebral blood flow (mean ± standard error) (vertebral blood flow [3]; 30 minutes after administration) [%] | Increase (%) of vertebral blood flow (mean ± standard error) (vertebral blood flow [3]; 60 minutes after administration) [%] | Increase (%) of vertebral blood flow (mean ± standard error) (vertebral blood flow [3]; 120 minutes after administration) [%] | Increase (%) of vertebral blood flow (mean ± standard error) (vertebral blood flow [3]; 180 minutes after administration) [%] | Increase (%) of vertebral blood flow (mean ± standard error) (vertebral blood flow [3]; 240 minutes after administration) [%] |
| --- | --- | --- | --- | --- | --- | --- | --- | --- | --- | --- | --- | --- |
| COc1ccc(C=CCN2CCN(C(c3ccccc3)c3ccccc3)CC2)c(OC)c1OC.Cl.Cl [B, 1-Benzhydryl-4-(2,3,4-trimethoxycinnamyl) piperazine dihydrochloride] | 0.12 | 841 | 76 ± 14 | 58 ± 12 | 41 ± 7 | 26 ± 4 |  |  |  |  |  |  |
| COc1ccc(C=CCN2CCN(C(c3ccc(F)cc3)c3ccc(F)cc3)CC2)c(OC)c1.O=C(O)/C=C/C(=O)O [C, 1-[Bis(4-fluorophenyl)methyl]-4-(2,4-dimethoxycinnamyl)piperazine fumarate] | 0.08 | 102 | 83 ± 12 | 92 ± 10 | 71 ± 7 | 50 ± 7 |  |  |  |  |  |  |
| C(=Cc1ccccc1)CN1CCN(C(c2ccccc2)c2ccccc2)CC1 [Cinnarizine, reference compound] |  |  | 40 ± 10 | 5 ± 4 | 2 ± 2 | 2 ± 4 |  |  |  |  |  |  |
| COc1ccc(C=CCN2CCN(C(c3ccc(F)cc3)c3ccc(F)cc3)CC2)c(OC)c1OC.Cl.Cl [Compound A, 1-[Bis(4-fluorophenyl)methyl]-4-(2,3,4-trimethoxycinnamyl)piperazine dihydrochloride] | 0.06 | 185 | 107 ± 17 | 137 ± 39 | 134 ± 40 | 120 ± 38 | 6.2 ± 1.8 | 51.0 ± 18.6 | 149.3 ± 48.0 | 150.9 ± 38.2 | 98.8 ± 24.2 | 55.1 ± 17.2 |
| COc1ccc(C=CCN2CCN(C(c3ccccc3)c3ccccc3)CC2)c(OC)c1.O=C(O)/C=C/C(=O)O [D, 1-Benzhydryl-4-(2,4-dimethoxycinnamyl) piperazine fumarate] | 0.18 | 773 | 66 ± 11 | 51 ± 10 | 27 ± 7 | 18 ± 6 |  |  |  |  |  |  |
| Fc1ccc(C(c2ccc(F)cc2)N2CCN(CC=Cc3ccccc3)CC2)cc1 [Flunarizine dihydrochloride, reference compound] | > 0.3 |  | 53 ± 20 | 20 ± 12 | 11 ± 7 | 10 ± 6 |  |  |  |  |  |  |
